From patent US20190375708A1 (VenatoRx Pharmaceuticals, Inc., priority 2018, published 2019)

How the values were obtained:
[1] = In vitro cytotoxicity assay (MTT cell viability) in HepG2 cells; format: cell-based, human; details: human
How it was run: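 HepG2 cells incubated 7 days at 37 °C, 5% CO2 with compounds from 30 μM to 1.0 nM (8 half-log dilutions). Viability read as MTT formazan absorbance at 492 nm, normalised to vehicle controls; CC50 from 4-parameter non-linear regression.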

[2] = test system: HBV replication in HepAD38 cells; assay: Anti-HBV replication assay in HepAD38 cells (QPCR of extracellular HBV DNA); format: cell-based, HBV (genotype D, serotype ayw); details: Hepatitis B virus, 168 h, 7 days incubation, extracellular HBV DNA by QPCR, read-out: Anti-HBV EC50
How it was run: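 Tet-off HepAD38, 7-day compound exposure ([…], 1 log10 steps, DMSO vehicle), 37 °C. Extracellular HBV DNA by QPCR, copies/mL via standard curve, % inhibition vs vehicle, EC50 by 4-parameter regression. Entecavir as positive control.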

SMILES | CC50 at 7 days [1] [nM] | EC50 [2] [nM]
Cc1cc(NC(=O)c2c(C)c(C(=O)C(=O)NC(C)(C)c3nc(CN(C)C)no3)n3c2CCCC3)ccc1F [Example 437, 3-(2-((2-(3-((dimethylamino)methyl)-1,2,4-oxadiazol-5-yl)propan-2-yl)amino)-2-oxoacetyl)-N-(4-fluoro-3-methylphenyl)-2-methyl-5,6,7,8-tetrahydroindolizine-1-carboxamide] | > 30000 | 50 to 499
Cc1cc(NC(=O)c2c(C)c(C(=O)C(=O)N[C@H](C(=O)O)[C@H](C)O)n(C)c2C)ccc1F [Example 51, (2-(4-((4-fluoro-3-methylphenyl)carbamoyl)-1,3,5-trimethyl-1H-pyrrol-2-yl)-2-oxoacetyl)-L-allothreonine] | > 30000 | 50 to 499
Cc1c(C(=O)Nc2ccnc(Cl)c2)c(C)n(C)c1C(=O)C(=O)N[C@H]1CC[C@@H](O)CC1 [Example 252, N-(2-chloropyridin-4-yl)-5-(2-(((1s,4s)-4-hydroxycyclohexyl)amino)-2-oxoacetyl)-1,2,4-trimethyl-1H-pyrrole-3-carboxamide] | > 30000 | 50 to 499
Cc1cc(NC(=O)c2c(C)c(C(=O)C(=O)NC34CC5CC(CC(O)(C5)C3)C4)n(C)c2C)ccc1F [Example 15, N-(4-fluoro-3-methylphenyl)-5-(2-(((1r,3s,5R,7S)-3-hydroxyadamantan-1-yl)amino)-2-oxoacetyl)-1,2,4-trimethyl-1H-pyrrole-3-carboxamide] | > 30000 | < 50
Cc1cc(NC(=O)c2c(C)c(C(=O)C(=O)N[C@H]3CC[C@H](O)CC3)n(CCF)c2C)ccc1F [Example 198, N-(4-fluoro-3-methylphenyl)-1-(2-fluoroethyl)-5-(2-(((1r,4r)-4-hydroxycyclohexyl)amino)-2-oxoacetyl)-2,4-dimethyl-1H-pyrrole-3-carboxamide] | > 30000 | 50 to 499
CNC(=O)[C@@H](NC(=O)C(=O)c1c(C)c(C(=O)Nc2ccc(F)c(C)c2)c(C)n1C)[C@H](C)O [Example 58, N-(4-fluoro-3-methylphenyl)-5-(2-(((2S,3S)-3-hydorxy-1-(methylamino)-1-oxobutan-2-yl)amino)-2-oxoacetyl)-1,2,4-trimethyl-1H-pyrrole-3-carboxamide] | > 30000 | 500 to 1000
Cc1cc(NC(=O)c2c(C)c(C(=O)C(=O)N[C@H]3CCNC3=O)n(C)c2C)ccc1F [Example 671, (S)-N-(4-fluoro-3-emthylphenyl)-1,2,4-trimethyl-5-(2-oxo-2-((2-oxopyrroldin-3-yl)amino)acetyl)-1H-pyrrole-3-carboxamide] | > 30000 | < 50
Cc1cc(NC(=O)c2c(C)c(C(=O)C(=O)N[C@@H](C(=O)NCCO)C(C)(C)C)n(C)c2C)ccc1F [Example 86, (R)-N-(4-fluoro-3-methylphenyl)-5-(2-((1-((2-hydroxyethyl)amino)-3,3-dimethyl-1-oxobutan-2-yl)amino)-2-oxoacteyl)-1,2,4-trimethyl-1H-pyrrole-3-carboxamide] | 5000 to 30000 | < 50
Cc1c(C(=O)Nc2ccn(C)n2)c2n(c1C(=O)C(=O)NC1(CO)CCC1)CCCC2 [Example 748, 3-(2-((1-(hydroxymethyl)cyclobutyl)amino)-2-oxoacetyl)-2-methyl-N-(1-methyl-1H-pyrazol-3-yl)-5,6,7,8-tetrahydroindolizine-1-carboxamide] | > 30000 | 50 to 499
Cc1c(C(=O)Nc2ccc(F)nc2)c(C)n(C)c1C(=O)C(=O)NC1(C(F)(F)F)CCOCC1 [Example 110, N-(6-fluoropyridin-3-yl)-1,2,4-trimethyl-5-(2-oxo-2-((4-(trifluoromethyl)tetrahydro-2H-pyran-4-yl)amino)acetyl)-1H-pyrrole-3-carboxamide] | > 30000 | < 50
Cc1cc(NC(=O)c2cc(C(=O)C(=O)NC(C)(C)C)n3c2COCC3)ccc1F [Example 583, 6-(2-(tert-butylamino)-2-oxoacetyl)-N-(4-fluoro-3-methylphenyl)-3,4-dihydro-1H-pyrrolo[2,1-c][1,4]oxazine-8-carboxamide] | > 30000 | < 50
Cc1cc(NC(=O)c2c(C)c(C(=O)C(=O)N[C@H](C)C(F)(F)F)n(C)c2C)ccc1F [Example 289, (R)-N-(4-fluoro-3-methylphenyl)-1,2,4-trimethyl-5-(2-oxo-2-((1,1,1-trifluoropropan-2-yl)amino)acetyl)-1H-pyrrole-3-carboxamide] | 5000 to 30000 | < 50
Cc1c(C(=O)Nc2ccnc(Cl)c2)c(C)n(C)c1C(=O)C(=O)NC(C)(C)CO [Example 190, N-(2-chloropyridin-4-yl)-5-(2-((1-hydroxy-2-methylpropan-2-yl)amino)-2-oxoacetyl)-1,2,4-trimethyl-1H-pyrrole-3-carboxamide] | > 30000 | < 50
Cc1cc(NC(=O)c2c(C)c(C(=O)C(=O)N[C@@H](C)CO)n(C)c2C)ccc1F [Example 217, (S)-N-(4-ffluoro-3-methylphenyl)-5-(2-((1-hydroxypropan-2-yl)amino)-2-oxoacetyl)-1,2,4-trimethyl-1H-pyrrole-3-carboxamide] | > 30000 | < 50
Cc1cc(NC(=O)c2c(C)c(C(=O)C(=O)NC3CCS(=O)(=O)CC3)n(C)c2C)ccc1F [Example 249, 5-(2-((1,1-dioxidotetrahydro-2H-thiopyran-4-yl)amino)-2-oxoacetyl)-N-(4-fluoro-3-methylphenyl)-1,2,4-trimethyl-1H-pyrrole-3-carboxamide] | 5000 to 30000 | < 50
Cc1c(C(=O)Nc2ccc(F)c(F)c2)c(C)n(C)c1C(=O)C(=O)NC12CCC(O)(CC1)CC2 [Example 335, N-(3,4-difluorophenyl)-5-(2-((4-hydroxybicyclo[2.2.2]octan-1-yl)amino)-2-oxoacetyl)-1,2,4-trimethyl-1H-pyrrole-3-carboxamide] | > 30000 | < 50
Cc1c(C(=O)Nc2cc(F)c(F)c(F)c2)c(Cl)c(C(=O)C(=O)N[C@@H]2CCC[C@@H]2O)n1C [Example 374, 4-chloro-5-(2-(((1R,2S)-2-hydroxycyclopentyl)amino)-2-oxoacetyl)-1,2-dimethyl-N-(3,4,5-trifluorophenyl)-1H-pyrrole-3-carboxamide] | 500 to 4990 | < 50
Cc1cc(NC(=O)c2c(C)c(C(=O)C(=O)N[C@H]3CC[C@@H](C(=O)O)CC3)n(C)c2C)ccc1F [Example 279, (1s,4s)-4-(2-(4-((4-fluoro-3-methylphenyl)carbamoyl)-1,3,5-trimethyl-1H-pyrrol-2-yl)-2-oxoacetamido)cyclohexane-1-carboxylic acid] | > 30000 | 50 to 499
Cc1cc(NC(=O)c2c(C)c(C(=O)C(=O)NC3CC4CCC(C3)S4(=O)=O)n(C)c2C)ccc1F (stereo not shown) [Example 624, 5-(2-((8,8-dioxido-8-thiabicyclo[3.2.1]ctan-3-yl)amino)-2-oxoacetyl)-N-(4-fluoro-3-methylphenyl)-1,2,4-trimethyl-1H-pyrrole-3-carboxamide] | > 30000 | < 50
COc1c(C(=O)Nc2ccc(F)c(F)c2)c(C)n(C)c1C(=O)C(=O)N[C@H]1CC[C@@H](O)CC1 [Example 383, N-(3,4-difluorophenyl)-5-(2-(((1s,4s)-4-hydroxycyclohexyl)amino)-2-oxoacetyl)-4-methoxy-1,2-dimethyl-1H-pyrrole-3-carboxamide] | > 30000 | 500 to 1000
Cc1cc(NC(=O)c2c(C)c(C(=O)C(=O)NCc3cnc(N)s3)n(C)c2C)cnc1F [Example 171, 5-(2-(((2-aminothiazol-5-yl)methyl)maino)-2-oxoacetyl)-N-(6-fluoro-5-methylpyridin-3-yl)-1,2,4-trimethyl-1H-pyrrole-3-carboxamide] | > 30000 | < 50
Cc1cc(NC(=O)c2c(C)c(C(=O)C(=O)NC3(c4noc(-c5cccs5)n4)CCCCC3)n(C)c2C)ccc1F [Example 634] | > 30000 | < 50
Cc1cc(NC(=O)c2c(Cl)c(C(=O)C(=O)N[C@@H](C)C(F)(F)F)n3c2CCC3)cnc1F [Example 574, (S)-6-chloro-N-(6-ffluoro-5-methylpyridin-3-yl)-5-(2-oxo-2-((1,1,1-trifluoropropan-2-yl)amino)acetyl)-2,3-dihydro-1H-pyrroliine-7-carboxamide] | 5000 to 30000 | 500 to 1000
Cc1cc(NC(=O)c2c(C)c(C(=O)C(=O)NC(C)CN3CCOCC3)n(C)c2C)ccc1F (stereo not shown) [Example 290, N-(4-fluoro-3-methylphenyl)-1,2,4-trimethyl-5-(2-((1-morpholinopropan-2-yl)amino)-2-oxoacetyl)-1H-pyrrole-3-carboxamide] | > 30000 | < 50
Cc1cc(NC(=O)c2c(C)c(C(=O)C(=O)NCC(=O)N3CCOCC3)n(C)c2C)ccc1F [Example 299, N-(4-fluoro-3-methylphenyl)-1,2,4-trimethyl-5-(2-((2-morpholino-2-oxoethyl)amino)-2-oxoacetyl)-1H-pyrrole-3-carboxamide] | > 30000 | 50 to 499
Cc1cc(NC(=O)c2c(C)c(C(=O)C(=O)NC3(C)CC[C@H](O)[C@H](O)C3)n(C)c2C)ccc1F (stereo partly drawn) [Example 703, 5-(2-(((3R,4S)-3,4-dihydroxy-1-methylcyclohexyl)amino)-2-oxoacetyl)-N-(4-fluoro-3-methylphenyl)-1,2,4-trimethyl-1H-pyrrole-3-carboxamide] | > 30000 | < 50
